Converted amounts (≈) assume the structure as drawn.
Experiments:
RPMI8226 cell line = assay: multiple myeloma cell growth inhibition, MTT; format: cell-based; conditions: Homo sapiens, RPMI-8226
Procedure: Multiple myeloma cell lines: RPMI8226 (multiple myeloma), purchased from Fuxiang Bio-tech Co. Ltd., Shanghai, China.
Obtaining 6000 well-growing cells as above and inoculating them into wells of a 96-well cell culture plate. The culture medium is the 1640 cell culture medium containing 10% fetal bovine serum. After adding the 2-substituted oleanolic acid derivatives of different concentrations and mixing uniformly, placing the plate in a carbon dioxide cell incubator (5% CO2) at 37° C. and incubated for 72 hours. Then the relative number of viable cells is determined by MTT method. In this experiment, cell proliferation inhibition rate in control group (not treated with any compound) is set as 0%.

A549 cell line = assay: solid tumor cell growth inhibition, MTT; format: cell-based; conditions: Homo sapiens
Procedure: (§1) Hep-2 (laryngeal carcinoma), A549 (human lung cancer), CaES-17 (esophageal cancer cell), PC-3 (prostate cancer), CNE (nasopharyngeal carcinoma cell), and SK-OV-3 (ovarian cancer cell), all of which are purchased from China Center For Type Culture Collection; RKO (human colon adenocarcinoma cell), MGC 803 (human gastric cancer cell), MG63 (osteosarcoma) and U87 MG (malignant glioma cell), all of which are purchased from Fuxiang Bio-tech Co. Ltd., Shanghai, China; PANC-1 (pancreatic cancer), Hep G2 (human liver cancer cell), Becap37 (human breast cancer cell), and Hela (human cervical cancer cell), all of which are donated by Cancer Research Institute of Zhejiang University, China.
(§2) Obtaining 4000 well-growing human solid tumor cells and inoculating them into wells of a 96-well cell culture plate. The culture medium is DMEM High Glucose cell culture medium containing 10% fetal bovine serum. The plate is placed in a carbon dioxide cell incubator (5% CO2) at 37° C. for 24 hours. After adding the 2-substituted oleanolic acid derivatives of different concentrations and mixing uniformly, the plate is placed in a carbon dioxide cell incubator (5% CO2) at 37° C. and incubated for 72 hours. Then the relative number of the living cells is determined by MTT method. In this experiment, the cell proliferation inhibition rate in control group (not treated with any compound) is set as 0%.

Hela cell line = assay: solid tumor cell growth inhibition, MTT; format: cell-based; conditions: Homo sapiens, 72 h
Procedure: as §1, §2

Becap37 cell line = assay: solid tumor cell growth inhibition, MTT; format: cell-based; conditions: Homo sapiens
Procedure: as §1, §2

U87 MG cell line = assay: solid tumor cell growth inhibition, MTT; format: cell-based; conditions: Homo sapiens, U-87 MG, 72 h
Procedure: as §1, §2

CNE cell line = assay: solid tumor cell growth inhibition, MTT; format: cell-based; conditions: Homo sapiens, 72 h
Procedure: as §1, §2

Hep-2 cell line = assay: solid tumor cell growth inhibition, MTT; format: cell-based; conditions: Homo sapiens
Procedure: as §1, §2

RKO cell line = assay: solid tumor cell growth inhibition, MTT; format: cell-based; conditions: Homo sapiens, 72 h
Procedure: as §1, §2

CaES-17 cell line = assay: solid tumor cell growth inhibition, MTT; format: cell-based; conditions: Homo sapiens, CaEs17
Procedure: as §1, §2

PANC-1 cell line = assay: solid tumor cell growth inhibition, MTT; format: cell-based; conditions: Homo sapiens
Procedure: as §1, §2

PC-3 cell line = assay: solid tumor cell growth inhibition, MTT; format: cell-based; conditions: Homo sapiens
Procedure: as §1, §2

MG-63 cell line = assay: solid tumor cell growth inhibition, MTT; format: cell-based; conditions: Homo sapiens
Procedure: as §1, §2

SK-OV-3 cell line = assay: solid tumor cell growth inhibition, MTT; format: cell-based; conditions: Homo sapiens
Procedure: as §1, §2

MGC 803 cell line = assay: solid tumor cell growth inhibition, MTT; format: cell-based; conditions: Homo sapiens
Procedure: as §1, §2

Kasumi-1 cell line = assay: leukemia cell growth inhibition, MTT; format: cell-based; conditions: Homo sapiens
Text: (§3) Leukemia cell lines: leukemia cell lines: K562/adr (drug-resistant, chronic myeloid leukemia, CML), NB4 (acute promyelocytic leukemia, AML), Kasumi-1 (acute myeloid leukemia M2 type, AML-M2), Jurkat (acute lymphoblastic leukemia, ALL), all of which are donated by Cancer Research Institute of Zhejiang University, China; and H9 (acute lymphoblastic leukemia, ALL), which is purchased from China Center for Type Culture Collection (CCTCC).
(§4) Obtaining 6000 well-growing leukemia cells and inoculating them into wells of a 96-well cell culture plate. The culture medium is the 1640 cell culture medium containing 10% fetal bovine serum. After adding the 2-substituted oleanolic acid derivatives of different concentrations and mixing uniformly, placing the plate in a carbon dioxide cell incubator (5% CO2) at 37° C. and incubated for 72 hours. Then the relative number of viable cells is determined by MTT method. In this experiment, cell proliferation inhibition rate in control group (not treated with any compound) is set as 0%.

K562/adr cell line = assay: leukemia cell growth inhibition, MTT; format: cell-based; conditions: Homo sapiens, 72 h
Text: as §3, §4

Jurkat cell line = assay: leukemia cell growth inhibition, MTT; format: cell-based; conditions: Homo sapiens, 72 h
Text: as §3, §4

H9 cell line = assay: leukemia cell growth inhibition, MTT; format: cell-based; conditions: Homo sapiens
Text: as §3, §4

NB4 cell line = assay: leukemia cell growth inhibition, MTT; format: cell-based; conditions: Homo sapiens, NB-4
Text: as §3, §4

Hep G2 cell line = assay: solid tumor cell growth inhibition, MTT; format: cell-based, human; conditions: Homo sapiens
Procedure: as §1, §2

[1] = 16 μg/mL compound, read-out: IR (cell proliferation inhibition rate)

Compound `CCN(CC)CCCNC(=O)C1C[C@]2(C)[C@H]3CC=C4[C@@H]5CC(C)(C)CC[C@]5(C(=O)OC)CC[C@@]4(C)[C@]3(C)CC[C@H]2C(C)(C)C1=O` (stereo partly shown) [BS-OA-035] has an inhibition at 16 µg/mL (RPMI8226 cell line; RPMI8226, 16 μg/mL compound, 72 h, read-out: IR (cell proliferation inhibition rate)) of 99.1%, an IC50 (RPMI8226 cell line; RPMI8226, 72 h) of 0.61 µg/mL (≈ 0.976 µM) and an IC50 (A549 cell line; A549, 72 h) of 2.02 µg/mL (≈ 3.23 µM). For the same compound, the inhibition at 16 µg/mL (A549 cell line; A549, 16 μg/mL compound, 72 h, read-out: IR (cell proliferation inhibition rate)) was 97.3%, the IC50 (Hela cell line; HeLa) was 3.11 µg/mL (≈ 4.98 µM) and the inhibition at 16 µg/mL (Hela cell line; Hela, 16 μg/mL compound, read-out: IR (cell proliferation inhibition rate)) was 98.1%. For the same compound, the inhibition at 16 µg/mL (Becap37 cell line; Becap37, 16 μg/mL compound, 72 h, read-out: IR (cell proliferation inhibition rate)) was 98.6%, the IC50 (Becap37 cell line; Becap37, 72 h) was 5.2 µg/mL (≈ 8.32 µM) and the inhibition at 16 µg/mL (U87 MG cell line; [1]) was 97.1%. The IC50 (U87 MG cell line) was 2.7 µg/mL (≈ 4.32 µM), the inhibition at 16 µg/mL (CNE cell line; [1]) was 99% and the IC50 (CNE cell line) was 3.64 µg/mL (≈ 5.82 µM). It also gave an IC50 (Hep-2 cell line; HEp-2, 72 h) of 5.34 µg/mL (≈ 8.54 µM), an inhibition at 16 µg/mL (Hep-2 cell line; Hep-2, 16 μg/mL compound, 72 h, read-out: IR (cell proliferation inhibition rate)) of 98.5% and an inhibition at 16 µg/mL (RKO cell line; [1]) of 97.2%. For the same compound, the IC50 (RKO cell line) was 2.39 µg/mL (≈ 3.82 µM), the inhibition at 16 µg/mL (CaES-17 cell line; CaES-17, 16 μg/mL compound, 72 h, read-out: IR (cell proliferation inhibition rate)) was 98% and the IC50 (CaES-17 cell line; CaES-17, 72 h) was 2.74 µg/mL (≈ 4.38 µM). The IC50 (PANC-1 cell line; PANC-1, 72 h) was 4.89 µg/mL (≈ 7.82 µM), the inhibition at 16 µg/mL (PANC-1 cell line; PANC-1, 16 μg/mL compound, 72 h, read-out: IR (cell proliferation inhibition rate)) was 99.8% and the IC50 (PC-3 cell line; PC-3, 72 h) was 5 µg/mL (≈ 8 µM). It also gave an inhibition at 16 µg/mL (PC-3 cell line; PC-3, 16 μg/mL compound, 72 h, read-out: IR (cell proliferation inhibition rate)) of 98.5%, an IC50 (MG-63 cell line; MG-63, 72 h) of 1.62 µg/mL (≈ 2.59 µM) and an inhibition at 16 µg/mL (MG-63 cell line; MG-63, 16 μg/mL compound, 72 h, read-out: IR (cell proliferation inhibition rate)) of 100%. The IC50 (SK-OV-3 cell line; SK-OV-3, 72 h) was 3.72 µg/mL (≈ 5.95 µM), the inhibition at 16 µg/mL (SK-OV-3 cell line; SK-OV-3, 16 μg/mL compound, 72 h, read-out: IR (cell proliferation inhibition rate)) was 98.6% and the inhibition at 16 µg/mL (MGC 803 cell line; MGC 803, 16 μg/mL compound, 72 h, read-out: IR (cell proliferation inhibition rate)) was 98.9%. For the same compound, the IC50 (MGC 803 cell line; MGC 803, 72 h) was 2.56 µg/mL (≈ 4.1 µM), the inhibition at 16 µg/mL (Kasumi-1 cell line; Kasumi-1, 16 μg/mL compound, 72 h, read-out: IR (cell proliferation inhibition rate)) was 97% and the IC50 (Kasumi-1 cell line; Kasumi-1, 72 h) was 3.95 µg/mL (≈ 6.32 µM). It also gave an IC50 (K562/adr cell line; K562/Adr) of 0.68 µg/mL (≈ 1.09 µM), an inhibition at 16 µg/mL (K562/adr cell line; K562/adr, 16 μg/mL compound, read-out: IR (cell proliferation inhibition rate)) of 99.6% and an inhibition at 16 µg/mL (Jurkat cell line; [1]) of 96.6%. The IC50 (Jurkat cell line) was 1.67 µg/mL (≈ 2.67 µM), the IC50 (H9 cell line; H9, 72 h) was 2.67 µg/mL (≈ 4.27 µM) and the inhibition at 16 µg/mL (H9 cell line; H9, 16 μg/mL compound, 72 h, read-out: IR (cell proliferation inhibition rate)) was 97.5%. The inhibition at 16 µg/mL (NB4 cell line; NB4, 16 μg/mL compound, 72 h, read-out: IR (cell proliferation inhibition rate)) was 99.8%, the IC50 (NB4 cell line; NB4, 72 h) was 2.96 µg/mL (≈ 4.74 µM) and the inhibition at 16 µg/mL (Hep G2 cell line; HepG2, 72 h, Hep G2, 16 μg/mL compound, 72 h, read-out: IR (cell proliferation inhibition rate)) was over 96%. For the same compound, the IC50 (Hep G2 cell line; HepG2, Hep G2, 72 h) was 1.94 µg/mL (≈ 3.1 µM).

— patent publication US9156801B2, “2-substituted oleanolic acid derivative, method preparing for same, and application thereof” (HANGZHOU BENSHENG PHARMACEUTICAL CO., LTD., priority 2011, dated 2015)
